Assay results from patent US9249466B2, “Methods and compositions for treating cancer” (Agency for Science, Technology and Research, priority 2010, dated 2016).
“Also recorded” adds a separate entry of the source.

Key:
PPP2R2B = test: RT-PCR analysis of PPP2R2B expression; format: cell-based, human; conditions: DLD1 cells, 5 μM for 3 days
Procedure: For RT-PCR, total RNA was reverse-transcribed using oligo(dT)12-18 primer (SEQ ID NO: 6)with Superscript II reverse transcriptase (Invitrogen). 100 ng of cDNA was used for PCR. The primers PPP2R2B F: 5′ […] 3′ (SEQ ID NO: 7) and PPP2R2B R: 5′ (SEQ ID NO: 8) […] 3′ were used to amplify the PPP2R2B cDNA.

p-Myc(T58/S62) = test: Immunoblot analysis of Myc phosphorylation; format: cell-based, human; conditions: DLD1 cells; for effect on rapamycin-induced Myc phosphorylation: BX912 2.5 μM or PIK90 5 μM with rapamycin 10 nM
SW480 and DLD1 cells = test: G2/M phase arrest by PI staining and FACS in SW480 and DLD1 cells; format: cell-based, human; conditions: BX912 2.5 μM or PIK90 with rapamycin 10 nM, 48 h
Procedure: (§1) In brief, 1000 cells were seeded in 96-well plate and the cell number was measured following manufacturer's instruction. To detect the senescence in DLD1-tet on cells, cells were treated with Dox for 48 hr and SA-β-Gal staining was performed according to the protocol of Senescence Detection kit (BioVision). Cell cycle analysis was done by DNA content quantification.
The cells were fixed with 70% ethanol and stained with propidium iodide (50 μg/ml) staining. The stained cells were analyzed by FACScalibur (BD Bioscience) and quantified by using CellQuest software (BD bioscience).

DLD1 and SW480 cells [1] = test: Cell viability of DLD1 and SW480 cells under drug combinations; format: cell-based, human; conditions: BX912 2.5 μM plus rapamycin 10 nM, 5-day cell viability assay
Procedure: Cell viability was measured using CellTiter-Glo™ Luminescent Cell Viability Assay (Promega).
as §1

p-AKT (S473) = test: Immunoblot analysis of AKT S473 phosphorylation; format: cell-based, human; conditions: DLD1 cells; for effect on AKT S473 phosphorylation: BX912 2.5 μM or PIK90 5 μM with rapamycin 10 nM, 48 hr
DLD1 and SW480 cells [2] = test: Monolayer dense foci / colony formation of DLD1 and SW480 cells; format: cell-based, human; conditions: BX912 2.5 μM plus rapamycin 10 nM, 2-week colony formation assay
Procedure: For DLD1 and HCT116 inducible cells foci formation assay, 1×10^4 cells were seeded on 6-well plate with or without treatment with Dox or rapamcycin. […]

SW480 cells = test: Morphologies of SW480 cells under treatment; format: cell-based, human
[3] = cited from earlier work
human cancers = conditions: also with intermittent dosing schedule; cited from earlier work
[4] = test system: behavioral tasks and aggregate formation; conditions: mouse model of HD; cited from earlier work
[5] = test system: HEK-TERV cells transformed with PDK1, Myc, shPTEN or PI3K E545K; test: Cell viability / proliferation of transformed HEK-TERV cells with PLK1 inhibitors; format: cell-based, human

Q: Which PPP2R2B expression (PPP2R2B) does the source give for Nc1ncn([C@H]2C[C@H](O)[C@@H](CO)O2)c(=O)n1 [5-aza-dC] here?
A: re-expression of PPP2R2B

Q: For Cn1c(=O)n(-c2ccc(C(C)(C)C#N)cc2)c2c3cc(-c4cnc5ccccc5c4)ccc3ncc21 [BEZ235], which Myc phosphorylation (p-Myc(T58/S62); BEZ 235 100 nM, 48 hr) is on record?
A: induced Myc phosphorylation

Q: With O=C(Nc1cccc(Nc2ncc(Br)c(NCCc3cnc[nH]3)n2)c1)N1CCCC1 [BX912] as the molecule, how does the “G2/M arrest in combination with rapamycin” value (SW480 and DLD1 cells) read?
A: synergized with rapamycin to induce strong G2/M arrest

Q: And the “effect on rapamycin-induced Myc phosphorylation” value (p-Myc(T58/S62); 48 hr)?
A: abolished rapamycin-induced Myc phosphorylation

Q: What about the “loss of cell viability in combination with rapamycin” value (DLD1 and SW480 cells [1]) of the same molecule?
A: synergistic loss of cell viability

Q: What about the “effect on AKT S473 phosphorylation” value (p-AKT (S473)) of the same molecule?
A: had no much effect on AKT S473

Q: What about the “loss of cell viability in combination with rapamycin (colony formation)” value (DLD1 and SW480 cells [2]) of the same molecule?
A: synergistic loss of cell viability

Q: What about the morphological change (SW480 cells) of the same molecule?
A: induced a morphological change similar to that seen upon PPP2R2B re-expression

Q: What does the source list for CO[C@H]1C[C@@H]2CC[C@@H](C)[C@@](O)(O2)C(=O)C(=O)N2CCCC[C@H]2C(=O)O[C@H]([C@H](C)C[C@@H]2CC[C@@H](OC(=O)C(C)(CO)CO)[C@H](OC)C2)CC(=O)[C@H](C)/C=C(\C)[C@@H](O)[C@@H](OC)C(=O)[C@H](C)C[C@H](C)/C=C/C=C/C=C/1C [CCI 779, rapamycin 42-[2,2-bis(hydroxymethyl)propionate]]?
A: water solubility [3]: water soluble; growth of cancers (human cancers): inhibit the growth of a diverse range of cancer types; behavioral performance and aggregate formation [4]: improved performance on 4 different behavioral tasks and decreased aggregate formation

Q: Which “selectivity of inhibition of proliferation / cell viability (dose-response)” value ([5]; HEK-PDK1 and HEK-Myc vs HEK-PMN and HEK-shPTEN cells, 4 days) does the source give for COc1cc2ncn(-c3cc(OCc4ccccc4C(F)(F)F)c(C(N)=O)s3)c2cc1OC [GW843682X] here?
A: more selectively decrease the cell viability of PDK1 or Myc-transformed cells; also recorded: more selectively inhibit the proliferation of PDK1 or Myc-transformed HEK cells

Q: What about the “growth inhibition in kinase inhibitor screen” value ([5]; HEK-PDK1 cells compared to HEK-vector control cells (PMN)) of the same molecule?
A: selective growth inhibition effect

Q: For COc1ccc2c(c1OC)N=C(NC(=O)c1cccnc1)N1CCN=C21 [PIK90], which “G2/M arrest in combination with rapamycin” value (SW480 and DLD1 cells) is on record?
A: not

Q: What about the “effect on rapamycin-induced Myc phosphorylation” value (p-Myc(T58/S62); 48 hr) of the same molecule?
A: unable to inhibit rapamycin-induced Myc phosphorylation

Q: What about the “effect on AKT S473 phosphorylation” value (p-AKT (S473)) of the same molecule?
A: effectively abolished the AKT S473 phosphorylation

Q: And the morphological change (SW480 cells)?
A: not

Q: Which Myc phosphorylation (p-Myc(T58/S62); 0.5 μM) does the source give for Oc1cccc(-c2nc(N3CCOCC3)c3oc4ncccc4c3n2)c1 [PIK-103] here?
A: enhanced Myc phosphorylation

Q: What about the “AKT S473 phosphorylation” value (p-AKT (S473); 0.5 μM) of the same molecule?
A: reduced AKT 5473 phosphorylation
